Experimental findings from paper PMC5399447, “Neuroprotective pentapeptide CN-105 is associated with reduced sterile inflammation and improved functional outcomes in a traumatic brain injury murine model” (Scientific Reports, 2017) are described below.

What all share (format): in vivo, mouse
The subject of data set [1] is murine closed head injury model (TBI). Put plainly: Morris Water Maze after closed head injury. From the text:
(§1) The murine closed head injury model used in this study was previously described. The closed head impact results in injury to selectively vulnerable neurons in cortex and hippocampus, and is associated with vestibulomotor deficits and long term neurocognitive deficits. Although animals do lose body weight, they rapidly regain spontaneous ventilation, righting reflex, and the ability to ambulate. Briefly, 12–14 week-old C57Bl/6 J male mice(Jackson Laboratories, Bar Harbor, ME) were used. The trachea was intubated after anesthesia induction with 4.6% isoflurane and the lungs were mechanically ventilated with 1.6% isoflurane in 30% O2/70% N2. Core body temperature was maintained at 37 °C through a rectal probe. To avoid basilar skull fracture, ear bars are not used. The animal was secured in a stereotactic device in a prone position on a molded acrylic cast with surgical tape across the shoulders. The intubation tube was also secured to the acrylic cast with tape. The acrylic cast is designed to allow the mouse to have 3 mm of space below the head to allow for acceleration/decelaration of the head in this position. The head was shaved and the scalp was incised to expose the skull and identify anatomical landmarks. A concave 3-mm metallic disc was adhered to the skull immediately caudal to bregma. A 2.0-mm diameter pneumatic impactor(Air-Power Inc., High Point, NC) was used to deliver a single midline impact to the center of the disc surface. The impactor was discharged at 6.8 ± 0.2 m/second with a head displacement of 3 mm. After impact, the animals were allowed to recover spontaneous ventilation and then the tracheas were extubated. Mice were allowed free access to food and water. Sham mice were treated identically except for the absence of impact. All mice were housed in the same facility.
(§2) CN-105(Ac-VSRRR-amide) was synthesized by Polypeptide Inc.(San Diego, CA) to a purity of >99%, and was delivered in sterile normal saline. Animals were placed in a restrainer(Harvard Apparatus, Holliston, MA), and a single intravenous dose of drug(0.05 mg/kg) was administered by tail vein in a volume of 100 μL. Vehicle treated animals received intravenous injection of 100 μL of normal saline at the same time points. Animals were assigned to treatment group by a coded study identification number after injury using a paper randomization protocol. A block randomization scheme was used, so that an equal number of animals were randomized to each of the treatment groups during concurrent experiments.
As described previously the Morris Water Maze assesses spatial learning and memory by testing the ability of mice to locate a submerged platform. The mice were placed in a pool(105 cm diameter) filled with room temperature(25 °C) water made opaque with fat free powdered milk and allowed up to 90 seconds to locate the submerged platform. The mice performed four trials/day for 4 consecutive days(inter-trial interval = 30 min). The mice were introduced in varying quadrants of the pool for each trial but the location of the platform never varied. The latency to locate the platform was recorded, and the 4 trials per day were averaged. Mice were tested on days 28–31 post-injury(n = 11–12 mice per group). A probe trial was administered on day 4 of the experiment 3 hours after the last test trial was completed. For the probe trial, the platform was removed and the mice were allowed to swim freely for 60 seconds. The percent of the time the mice spent in the platform quadrant was quantified.

For data set [2] the test system is unchanged. Put plainly: Rotarod vestibulomotor function after closed head injury. Particulars: for Rotarod functional performance compared to vehicle: n = 11-12/group.
Text: as §1
CN-105(Ac-VSRRR-amide) was synthesized by Polypeptide Inc.(San Diego, CA) to a purity of >99%, and was delivered in sterile normal saline. […] Vehicle treated animals received intravenous injection of 100 μL of normal saline at the same time points. Animals were assigned to treatment group by a coded study identification number after injury using a paper randomization protocol. A block randomization scheme was used, so that an equal number of animals were randomized to each of the treatment groups during concurrent experiments.
An automated Rotarod(Ugo Basile, Comerio, Italy) was used to assess vestibulomotor function. On the day prior to injury, mice(n = 11–12 mice per group) underwent one training trial at an accelerating rotational speed(4–40 rpm) for at least 200 seconds and then three additional test trials with the same accelerating rotational speed. The average time to fall from the rotating cylinder in the test trials was recorded as baseline latency. Mice were tested on consecutive days post-injury and received three consecutive daily trials with accelerating rotational speed(inter-trial interval = 15 minutes)(n = 10–12 mice). The average latency to fall from the rod was recorded. Mice unable to grasp the rotating rod were given a latency value of 0 seconds.
(In general: The rotarod test checks motor coordination on a turning rod.)

The subject of data set [3] is microglia in hippocampus of TBI injured mice. The data set is described as follows: F4/80 immunostained microglia, unbiased stereology. Particulars: 0.05 mg/kg, 10 days post TBI. On the procedure:
To assess the effects of CN-105 on inflammation, neuronal injury and neuronal loss, immunohistochemical(IHC) staining was performed using the F4/80 antibody(a marker for mature microglia and macrophages; rat monoclonal, 1:10,000; Serotec, Raleigh, NC) and the Fluoro-Jade B stain(a marker of degenerating neurons; Histo-Chem Inc. Jefferson, AR) on days 10 and 1, respectively, after TBI. IHC was performed on separate cohorts of mice from those used in neurobehavioral tests. As previously described, mice were anesthetized, euthanized, and perfused with 30 ml phosphate-buffered saline(PBS) via transcardiac puncture. The brains were then immersed in buffered formalin overnight and saturated with 30% sucrose in buffer. Sagittal sections(40 μm) were sliced on a freezing microtome and collected in cryoprotectant solution. […]
Prior to quantification, all slides were coded and the analyst was blinded to avoid experimenter bias. For the F4/80 quantification the brains of 5 TBI treated and 6 TBI vehicle treated mice(4–6 sections/mouse) were counted. Every eighth section of the dorsal hippocampus, according to the Paxinos and Franklin(2001) mouse brain atlas, was analyzed using the Stereo Investigator 7.0 software(MicroBrightField, Williston, VT). […] An average of 12 counting frames was analyzed per section, the grid size was 450 × 450 μm, and the dissector dimensions were 80 × 80 × 10 μm. […]

In a further data set the test system is TBI mice. The data set is described as follows: Tolerability after injury. The settings on record: treatment after injury. The protocol: as §2
Setting [4] is: 0.05 mg/kg iv 4 hours post-injury.

Ac-VSRRR-amide [CN-105]: the “Morris Water Maze latency to platform compared to vehicle” value in data set [1] (0.05 mg/kg iv 2 h after TBI, days 28-31, p = 0.036) is recorded as “significantly reduced time to escape to the platform”. The “Morris Water Maze probe trial compared to vehicle” value in data set [1] (0.05 mg/kg iv 2 h after TBI, p = 0.0079) is reported as “performed better on the probe trial”; in data set [1] (0.05 mg/kg iv 4 hours post-injury, p = 0.0211), “performed better on the probe trial”. For the same substance, the “Morris Water Maze swim speed compared to vehicle” value in data set [1] (0.05 mg/kg iv 2 h after TBI, p = 0.4968) is given as “no difference in swim speed”; in data set [1] (0.05 mg/kg iv 4 hours post-injury, p = 0.0567), “no significant difference in swim speed”. In addition, in data set [1] (setting [4]), the “Morris Water Maze neurocognitive performance compared to vehicle” value was “reduced deficit on Morris Water Maze testing”. Also, the “Rotarod functional performance compared to vehicle” value in data set [2] (0.0125 mg/kg iv 2 h after TBI, p = 0.267) was “did not show robust improvement”; in data set [2] (0.05 mg/kg iv 2 h after TBI, p = 0.011), “improved functional performance”; in data set [2] (0.2 mg/kg iv 2 h after TBI, p = 0.023), “improved functional performance”; in data set [2] (0.8 mg/kg iv 2 h after TBI, p = 0.009) it was “improved functional performance”. The “Rotarod latency compared to vehicle” value in data set [2] (setting [4]) is “significant and durable improvement in Rotarod latency”. Further, the “lowest effective dose resulting in improved functional performance” value in data set [2] (iv 2 h after TBI, Rotarod) is 0.05 mg/kg. The “effect of pretreatment on vestibulomotor and cognitive function” value in data set [2] (pretreatment 30 minutes prior to TBI, data not shown) was “no additional effects on vestibulomotor and cognitive function”. The “density of F4/80 microglia in dorsal hippocampus compared to vehicle” value in data set [3] (5 treated and 6 vehicle mice, p = 0.0002) was “significant decrease in density of microglia”. Further, the microglia morphology entry in data set [3] (hippocampus) was “almost exclusively small ramified microglia”. Further, in the data set with TBI mice, the tolerability entry is reported as “well tolerated”.
